Measured values from patent US20160052926A1, “NOVEL PYRIMIDINE AND PYRIDINE COMPOUNDS AND USAGE THEREOF” (HUTCHISON MEDIPHARMA LIMITED, priority 2013, published 2016).
Read-outs that look alike come from different tables or passages of the source.

Tests used:
[1] = tested on: KG-1; test: Cellular Proliferation Assay (Cell Counting Kit-8), KG-1; type: cell-based; conditions: Homo sapiens, KG1 cells, 72 hours
Procedure: (§1) Cellular Proliferation Assay
(§2) • KG-1 (ATCC Accession No. CCL-246), • SNU-16 (ATCC Accession No. CRL-5974), • RT-112 (ECACC Accession No. 85061106)
(§3) • FGFR related cancer cell proliferation is measured in 96-well plates using Cell Counting Kit-8 (Dojindo CK04-13). • Seed 30000 cells/well of KG1, 5000 cells/well of SNU16, and 1000 cells/well of RT112 in a volume of 100 μL/well in growth media. • After 24 hours, dilute the compound to 10, 3.3, 1.1, 0.37, 0.12, 0.04, 0.013, 0.004 μM, keeping the DMSO concentration at 5%. • Add 10 μL of 8-point compound series to the wells of culturing cells. • Incubate at 37° C. and 5% CO2 for 72 hours • Add 10 μL/well of CCkit8 and incubate at 37° C. and 5% CO2 for an hour • Detect the optical density of each well at 450 nm on Labsystems Multiskan K3.
(§4) • ODcompound well represents the optical density of cells treated with compound. • ODcell well represents the optical density of cells without compounds treatment. (only 0.5% DMSO) • ODcontrol well represents the optical density of culture media background
(§5) The concentration of compound providing 50% of proliferation inhibition was calculated using Excel Fit.

[2] = biological target: Recombinant human FGFR1 (Homo sapiens, UniProt P11362); test: Transcreener Kinase Assay of FGFR1; type: biochemical
Chain of Recombinant human FGFR1 (P11362 22-822): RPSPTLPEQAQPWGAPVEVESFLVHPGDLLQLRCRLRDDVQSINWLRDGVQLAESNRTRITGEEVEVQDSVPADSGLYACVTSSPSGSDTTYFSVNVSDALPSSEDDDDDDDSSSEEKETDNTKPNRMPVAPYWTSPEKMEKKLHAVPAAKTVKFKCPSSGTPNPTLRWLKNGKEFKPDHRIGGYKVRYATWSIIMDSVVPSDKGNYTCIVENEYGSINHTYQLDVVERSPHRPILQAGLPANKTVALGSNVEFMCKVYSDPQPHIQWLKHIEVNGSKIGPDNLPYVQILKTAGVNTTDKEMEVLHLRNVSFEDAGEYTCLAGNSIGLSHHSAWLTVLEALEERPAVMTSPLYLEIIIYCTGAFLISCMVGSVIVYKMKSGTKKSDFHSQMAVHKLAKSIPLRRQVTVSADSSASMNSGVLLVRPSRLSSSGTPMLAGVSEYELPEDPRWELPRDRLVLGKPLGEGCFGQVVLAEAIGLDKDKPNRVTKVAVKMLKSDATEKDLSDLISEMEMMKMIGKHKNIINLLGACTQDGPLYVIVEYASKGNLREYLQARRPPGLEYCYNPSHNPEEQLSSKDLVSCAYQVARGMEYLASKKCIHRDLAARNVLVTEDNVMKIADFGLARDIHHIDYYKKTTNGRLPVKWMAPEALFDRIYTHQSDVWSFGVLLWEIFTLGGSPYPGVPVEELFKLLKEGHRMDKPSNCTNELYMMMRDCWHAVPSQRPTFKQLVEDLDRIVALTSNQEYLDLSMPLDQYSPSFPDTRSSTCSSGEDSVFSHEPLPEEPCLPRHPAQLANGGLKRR
Procedure: Transcreener Kinase Assay of FGFR1
(§6) Prepare Solution • Compounds were solved in DMSO and were diluted with assay buffer to 5 folds of final concentration keeping the DMSO concentration at 5%. Further dilution are needed to make final concentrations are at 1, 0.33, 0.11, 0.037, 0.012, 0.004, 0.0014, 0.0005 μM; (the final concentration of DMSO is 1%). • Enzyme/Substrate stock Preparation: Recombinant human FGFR1 and Poly E4Y are both diluted in assay buffer.
(§7) Enzymatic Reaction • In a 96-well plate, Add 5 μL of compound or control. (positive control: 5 μL of 5% DMSO; negative control: 5 μL of 500 mM EDTA) into desired wells; • Add 10 μL of Enzyme/Substrate stock into each well; • Add 10 μL of ATP Diluents to initiate the enzyme reaction and votex the plate immediately on a plate shaker; • For the wells to make standard curve, add 5 μL of 5% DMSO, 10 μL of assay buffer and 10 μL of ATP standard curve stock. • Incubate the plate for 45 min at 28[…] on a plate shaker in a low speed.
Excitation wavelength: 610 nm, Emission wavelength: 670 nm.
(§8) • [ADP] in Compound well represents the ADP concentration in compound well. • [ADP] in Positive control well represents the ADP concentration in 5% DMSO well • Conversion of mP value to ADP concentration is calculated based on the formula which determined by standard curve. And mP value is measured by following the instruction provided by BellBrook Labs. (www.bellbrooklabs.com). 6. IC50: calculated using XL-Fit 2.0 software.

[3] = tested on: RT-112; test: Cellular Proliferation Assay (Cell Counting Kit-8), RT-112; type: cell-based; conditions: Homo sapiens, RT-112 cells, 72 hours
Procedure: as §1, §2, §3, §4, §5

[4] = biological target: Recombinant human FGFR2 (Homo sapiens, UniProt P21802); test: Transcreener Kinase Assay of FGFR2; type: biochemical
Chain of Recombinant human FGFR2 (P21802 22-821): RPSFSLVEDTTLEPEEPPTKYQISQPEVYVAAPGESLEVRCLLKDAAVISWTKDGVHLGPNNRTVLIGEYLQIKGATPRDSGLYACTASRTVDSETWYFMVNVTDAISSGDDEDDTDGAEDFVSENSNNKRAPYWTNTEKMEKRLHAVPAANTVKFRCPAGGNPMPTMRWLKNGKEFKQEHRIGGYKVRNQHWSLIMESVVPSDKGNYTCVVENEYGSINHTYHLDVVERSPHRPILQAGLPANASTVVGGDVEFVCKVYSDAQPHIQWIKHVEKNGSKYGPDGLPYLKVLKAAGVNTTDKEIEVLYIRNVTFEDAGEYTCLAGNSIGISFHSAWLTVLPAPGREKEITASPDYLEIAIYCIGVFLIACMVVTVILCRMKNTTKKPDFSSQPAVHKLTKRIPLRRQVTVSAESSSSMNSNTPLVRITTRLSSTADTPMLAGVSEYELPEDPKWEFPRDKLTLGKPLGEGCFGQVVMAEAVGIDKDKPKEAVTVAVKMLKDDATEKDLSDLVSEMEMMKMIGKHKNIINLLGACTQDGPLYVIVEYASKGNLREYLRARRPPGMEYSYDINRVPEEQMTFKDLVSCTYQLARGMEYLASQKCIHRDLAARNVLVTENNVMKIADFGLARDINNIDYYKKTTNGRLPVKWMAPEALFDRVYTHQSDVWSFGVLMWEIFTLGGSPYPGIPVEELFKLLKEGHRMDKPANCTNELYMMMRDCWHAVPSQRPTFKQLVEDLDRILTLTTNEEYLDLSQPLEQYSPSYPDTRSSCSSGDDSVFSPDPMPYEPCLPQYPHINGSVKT
Procedure: Transcreener Kinase Assay of FGFR2
as §6, with “•” for “Prepare Solution •”, “FGFR2” for “FGFR1”, “buffer. The final concentration is 0.3 ng/μL for FGFR2 and 62.5 ng/μL for Poly E4Y. The mixture is being kept in ice before use; • Prepare ATP Diluents, 10 mM ATP is diluted in assay buffer, the final concentration is 25 μM; • Prepare ADP Diluents: diluted ADP (500 μM) in assay buffer, the final concentration is 25 μM; • Prepare ATP standard curve stock as following:” for “buffer.”
as §7, with “•” for “Enzymatic Reaction •”
• Detection Mix Preparation: The mixture is made by dilution with MilliQ water; as following: ADP Alexa633 tracer (1:100), ADP antibody (1:158), and stop & detect buffer (1:10); • Tracer Only control Preparation: The mixture is made by dilution with MilliQ water; as following: ADP Alexa633 tracer (1:100), and stop & detect buffer (1:10) • No Tracer control Preparation: stop & detect buffer is diluted with MilliQ water; by 10 fold. • Add 25 μL of detection mix, Tracer Only control and No Tracer control into corresponding wells, respectively; • Incubate at 28 °C for 1 h, on a plate shaker in a low speed; • Measure florescence polarization (FP) on TECAN F500. Excitation wavelength: 610 nm, Emission wavelength: 670 nm.
as §8

[5] = biological target: FGFR3 kinase (Homo sapiens, UniProt P22607); test: Z-Lyte Kinase Assay of FGFR3; type: biochemical
Chain of FGFR3 kinase (P22607 23-806): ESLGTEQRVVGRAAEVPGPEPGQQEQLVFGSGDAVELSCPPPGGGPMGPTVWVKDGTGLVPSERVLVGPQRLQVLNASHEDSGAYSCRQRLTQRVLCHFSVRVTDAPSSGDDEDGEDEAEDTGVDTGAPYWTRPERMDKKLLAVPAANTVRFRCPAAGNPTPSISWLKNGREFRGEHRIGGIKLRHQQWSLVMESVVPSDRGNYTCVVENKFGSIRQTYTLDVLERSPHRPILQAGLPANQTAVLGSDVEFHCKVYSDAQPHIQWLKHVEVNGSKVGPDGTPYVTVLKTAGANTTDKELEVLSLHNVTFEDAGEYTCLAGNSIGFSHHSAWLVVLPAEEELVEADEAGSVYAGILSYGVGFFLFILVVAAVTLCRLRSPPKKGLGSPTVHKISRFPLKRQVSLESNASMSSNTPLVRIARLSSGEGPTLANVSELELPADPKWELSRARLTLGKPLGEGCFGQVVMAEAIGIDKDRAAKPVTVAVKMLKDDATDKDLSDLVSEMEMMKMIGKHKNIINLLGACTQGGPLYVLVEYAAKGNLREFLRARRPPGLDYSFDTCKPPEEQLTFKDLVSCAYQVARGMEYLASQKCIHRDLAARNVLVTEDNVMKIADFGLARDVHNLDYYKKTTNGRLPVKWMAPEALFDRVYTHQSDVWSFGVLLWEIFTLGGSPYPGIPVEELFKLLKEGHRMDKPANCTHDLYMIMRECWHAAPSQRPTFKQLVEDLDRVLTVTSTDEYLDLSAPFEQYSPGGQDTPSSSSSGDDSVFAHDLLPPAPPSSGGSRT
Procedure: Z-Lyte Kinase Assay of FGFR3
The final concentrations are 1, 0.33, 0.11, 0.037, 0.012, 0.004, 0.0014, 0.00046 μM, and the final concentration of DMSO is 2%. • 3) Kinase/Peptide Mixture (P/K solution): Prepare Kinase/Peptide Mixture by diluting the kinase to 0.7 μg/ml and the Z-LYTE™ Tyr 4 peptide to 4 μM in 1.33× Kinase Buffer. Mix gently by pipetting. • 4) Phospho-peptide Solution (PP solution): Add 0.4 μl of Z-LYTE™ Tyr 4 Phospho-peptide to 99.6 μl of 1.33× Kinase Buffer. • 5) ATP Solution: Prepare ATP Solution by diluting the 10 mM of ATP in 1.33× Kinase Buffer to 300 uM. • 6) Development Solution: Dilute Development Reagent B with Development Buffer as 1:128.
Shake the plate for 30 Sec and centrifuge (1500 rpm, 1 min) • Seal the plate to protect from the light and incubate the plate for 1 hour at RT (25-30[…]) • 2) Development reaction • Add 5 μl of the Development solution to all wells • Shake the plate for 30 Sec and centrifuge (1500 rpm, 1 min) • Seal the plate to protect from the light and incubate the plate for 1 hour at RT (25-30[…]) • 3) Stop and read • Add 5 μl of the Stop reagent to all wells • Shake the plate for 30 Sec and centrifuge (1500 rpm, 1 min) • Measure the value of Coumarin (Ex400 nm, Em445 nm) and fluorescein (Ex400 nm, Em520 nm), respectively.
Inhibition rate(IR)=1−%Photest Cpd/%PhoC2
• determined with add-in software for Microsoft Excel, XLfit™ (version 2.0) from ID Business Solutions (Guildford, UK)

[6] = tested on: SNU-16; test: Cellular Proliferation Assay (Cell Counting Kit-8), SNU-16; type: cell-based; conditions: Homo sapiens, SNU-16 cells, 72 hours
Procedure: as §1, §2, §3, §4, §5

Structure (SMILES)	IC50 ([2]; read-out: FGFR1 (FP) IC50) [µM]	IC50 ([4]; read-out: FGFR2 (FP) IC50) [µM]	IC50 [5] [µM]	IC50 [6] [µM]	IC50 [1] [µM]	IC50 [3] [µM]	IC50 ([2]; FGFR1 (FP) IC50) [µM]	IC50 ([4]; FGFR2 (FP) IC50) [µM]
CCN1CCN(c2ccc(Nc3ncc(CCc4cc(OC)cc(C(=O)NC)c4)cn3)cc2)CC1 [Compound 1, 3-(2-(2-((4-(4-ethylpiperazin-1-yl)phenyl)amino)pyrimidin-5-yl)ethyl)-5-methoxy-N-methylbenzamide]	0.024	0.019	0.028	0.095	0.049	0.612		
CNC(=O)c1cc(OC)c(Cl)c(/C=C/c2cnc(Nc3ccc(N4C[C@@H](C)N[C@@H](C)C4)cc3)nc2)c1F [Compound 8]	0.006	0.005	0.014	0.014	0.011	0.019		
CCN1CCN(c2ccc(Nc3ncc(CCc4cc(C(=O)NOC)cc(OC)c4C)cn3)cc2)CC1 [Compound 52]	0.001	0.002	0.005	0.005	0.004			
CCN1CCN(c2ccc(Nc3ncc(CCc4cc(C(=O)NC5CC5)cc(OC)c4F)cn3)cc2)CC1 [Compound 57]	0.008	0.009	0.014	0.032	0.016			
CCN1CCN(c2ccc(Nc3ccc(CCc4cc(OC)cc(C(=O)NOC)c4)cn3)cn2)CC1 [Compound 75]	0.041	0.033	0.061	0.094	0.123			
CCN1CCN(c2cc(F)cc(Nc3ncc(CCc4cc(OC)cc(C(=O)NOC)c4)cn3)c2)CC1 [Compound 77]	0.005	0.003	0.004	0.012	0.011			
CONC(=O)c1cc(CCc2cnc(Nc3ccc(OC)cc3)nc2)cc(OC)c1 [Compound 106]	0.01	0.007	0.035	0.033	0.04			
CONC(=O)c1cc(CCc2cnc(Nc3ccc(Cl)cc3)nc2)cc(OC)c1 [Compound 113]	0.048	0.018	0.146	0.089	0.148			
CCS(=O)(=O)n1cc(Nc2ncc(CCc3cc(C(=O)NC)cc(OC)c3F)cn2)cn1 [Compound 140, 3-(2-(2-(1-(ethylsulfonyl)-1H-pyrazol-4-ylamino)pyrimidin-5-yl)ethyl)-4-fluoro-5-methoxy-N-methylbenzamide]		0.016	0.06	0.062	0.152	0.438		
CNC(=O)c1cc(CCc2cnc(Nc3cnn(CC4CC4)c3)nc2)c(F)c(OC)c1 [Compound 141, 3-(2-(2-(1-(cyclopropylmethyl)-1H-pyrazol-4-ylamino)pyrimidin-5-yl)ethyl)-4-fluoro-5-methoxy-N-methylbenzamide]					0.015	0.112	0.011	0.005

Now from value to compound, other results behind:

IC50 ([2]; read-out: FGFR1 (FP) IC50) [µM]	IC50 ([4]; read-out: FGFR2 (FP) IC50) [µM]	IC50 [5] [µM]	IC50 [6] [µM]	Structure (SMILES)	IC50 [1] [µM]	IC50 [3] [µM]	IC50 ([2]; FGFR1 (FP) IC50) [µM]	IC50 ([4]; FGFR2 (FP) IC50) [µM]
0.017	0.01	0.017	0.031	CCn1cc(Nc2ncc(/C=C/c3c(F)c(C(=O)NC)cc(OC)c3Cl)cn2)cn1 [Compound 2]	0.017	0.019		
			0.134	CCn1cc(Nc2ncc(/C=C/c3cc(C(=O)NC)cc(OC)c3Br)cn2)cn1 [Compound 3]	0.072	0.37		
0.004	0.004	0.009	0.017	CCN1CCN(c2ccc(Nc3ncc(CCc4cc(C(=O)NC)cc(OC)c4Cl)cn3)cc2)CC1 [Compound 56]	0.007			
0.003	0.002	0.002	0.004	CCN1CCN(c2ccc(Nc3ncc(CCc4cc(C(=O)NOC)cc(OC)c4Cl)cn3)cc2)CC1 [Compound 59]	0.002			
0.054	0.017	0.062	0.158	CNC(=O)c1cc(CCc2cnc(Nc3ccnnc3)nc2)c(F)c(OC)c1 [Compound 61]	0.4			
0.018	0.009	0.011	0.047	CNC(=O)c1cc(CCc2cnc(Nc3ccn(C)c(=O)c3)nc2)c(F)c(OC)c1 [Compound 93]	0.125			
0.063	0.044	0.119	0.15	CNC(=O)c1cc(CCc2cnc(Nc3ccc4nnnn4c3)nc2)c(F)c(OC)c1 [Compound 96]	0.161			
0.007	0.005		0.008	CNC(=O)c1cc(COc2cnc(Nc3cnn(C)c3)nc2)c(Cl)c(OC)c1 [Compound 183]	0.009	0.014		
0.009	0.007		0.01	CCn1cc(Nc2ncc(OCc3cc(C(=O)NC)cc(OC)c3Cl)cn2)cn1 [Compound 184]	0.005	0.053		
